Laboratory results from US11434242B2, “Dopamine-b-hydroxylase inhibitors” (BIAL-PORTELA & Cª, S.A., priority 2017, dated 2022).

Biological target: T1, Dopamine beta hydroxylase (Homo sapiens, UniProt P09172)
T1 construct: 125 μl of plasma; tissue Instituto Português do Sangue Transplantação; host or cells: human plasma from healthy donors
T1 sequence (P09172 40-617 limits assumed): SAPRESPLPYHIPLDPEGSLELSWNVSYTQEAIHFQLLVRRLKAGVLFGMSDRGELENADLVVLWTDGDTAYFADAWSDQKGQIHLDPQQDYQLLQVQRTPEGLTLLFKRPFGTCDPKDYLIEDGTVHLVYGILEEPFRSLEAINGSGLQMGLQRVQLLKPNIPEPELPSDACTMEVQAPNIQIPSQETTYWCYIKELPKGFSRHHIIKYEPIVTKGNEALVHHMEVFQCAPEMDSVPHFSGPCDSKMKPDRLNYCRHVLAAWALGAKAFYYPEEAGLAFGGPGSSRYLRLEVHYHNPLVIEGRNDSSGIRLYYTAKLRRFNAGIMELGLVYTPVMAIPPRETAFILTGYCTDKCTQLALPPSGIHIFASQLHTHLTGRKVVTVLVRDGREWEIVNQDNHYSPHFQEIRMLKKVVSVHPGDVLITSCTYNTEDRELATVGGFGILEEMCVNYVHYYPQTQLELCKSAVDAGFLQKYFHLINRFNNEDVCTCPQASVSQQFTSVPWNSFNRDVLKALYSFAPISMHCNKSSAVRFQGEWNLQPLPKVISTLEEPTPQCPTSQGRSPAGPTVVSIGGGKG
Assay: Dopamine beta hydroxylase activity in human plasma
Assay type: biochemical
Settings: for Plasma (0.01 μM), activity in % of control: inhibitor 0.01 μM; for Plasma (0.1 μM), activity in % of control: inhibitor 0.1 μM; for Plasma (1 μM), activity in % of control: inhibitor 1 μM
Procedure: Furthermore, the ability of a compound to inhibit DβH activity may be assessed in human plasma using the following assay. […]. Dopamine beta hydroxylase activity in human plasma was measured by the method of Nagatsu and Udenfriend (Nagatsu, T. and Udenfriend, S. “Photometric assay of dopamine-μ-hydroxylase activity in human blood.” Clin. Chem. 18(9) 980-983, 1972) with minor modifications. Catalase, N-ethylmaleimide, tyramine, disodium fumarate, pargyline, sodium acetate, ascorbic acid, copper sulfate and octopamine were obtained from Sigma Chemical Co., St. Louis, Mo. 63178. Human plasma samples were obtained from healthy donors (Instituto Português do Sangue Transplantação, Centro Sangue Transplantação, Porto, Portugal). From date of collection, plasma was stored at −80° C. until use. Test compounds were initially prepared in dimethyl sulfoxide at a concentration of 10 mM and diluted in dimethyl sulfoxide to the required concentrations. Test compounds were further diluted in ultrapure water to a concentration 20-fold to that of the final concentration to be tested. Final concentrations of test compounds were 10, 100 and 1000 nM. The various reagents used to make up the incubation buffer were premixed and consisted of the following components: sodium acetate buffer (1 M, pH 5.0, 18 ml), sodium fumarate (0.2 M, 4.5 ml), ascorbic acid (0.2 M, 4.5 ml, freshly prepared), pargyline (20 mM, freshly prepared, 4.5 ml), N-ethylmaleimide (0.2 M, 4.5 ml), catalase (10 000 U/ml, 9 ml), copper sulfate (20 μM, 4.5 ml) and 4.5 ultrapure water. The standard incubation mixture (total volume, 950 μl) contained: 50 μL of compound or vehicle (dimethyl sulfoxide 2%); 700 μL of incubation buffer; 125 μl of plasma (or saline for blank reaction or standard curve); 75 μl of saline. The reaction mixture was placed in water bath, shaking at 37° C. and pre-incubated for 10 minutes. Tyramine (0.5 M) was added and incubation proceeded for 45 minutes. The reaction contents were exposed to air. A sample of enzyme preparation (with 125 μl of plasma) that had been added perchloric acid 2 M at the end of the pre-incubation period was used as blank. A blank for each of the tested compounds was used. For octopamine standard curve, perchloric acid 2 M was replaced by increasing concentrations of octopamine prepared in perchloric acid 2 M (0.5, 1, 2.5, 5, 7.5, 10, 15, 20 μg/ml, final concentration). The incubation was stopped by adding 200 μl of 2 M molar perchloric acid, and the mixture was centrifuged at 9000 g for 5 min. The supernatant fluid (800 μL) was transferred to a column (SPE cartridge ISOLUTE SCX-3, 100 mg) and centrifuged at 150 g for 2 min. The column was washed two more times with 0.5 ml of ultrapure water by centrifuging at 150 g for 2 min. The adsorbed octopamine was eluted twice with 0.3 ml of 4 M ammonium hydroxide by centrifuging at 150 g for 2 min. Octopamine in the eluate was then converted to p-hydroxybenzaldehyde by adding 200 μl of sodium periodate (2%) and incubating for 6 min. Excess periodate was than reduced by adding 200 μl of sodium metabisulfite (10%). Absorbance was measured at […] in a 96-well plate by use of a SpectraMAX plus 384 (Molecular Devices) with software SOFTmax® PRO Software 5.3 spectrophotometer. Absorbance was linear with octopamine concentration from 0.5 to 20 μg/ml. Dopamine beta hydroxylase activity is determined as nmol of octopamine formed/ml of plasma/hour and effect of compounds is presented as % control.
Results are reported in the table below as activity in % of control at the inhibitor concentration tested.

| Plasma (0.01 μM), activity in % of control | Plasma (0.1 μM), activity in % of control | Plasma (1 μM), activity in % of control | SMILES |
| --- | --- | --- | --- |
| 78.1 % of control | 33.8 % of control | – | O=C(Cc1[nH]c(=S)n2c1C[C@H](c1c(F)c(F)cc(F)c1F)C2)N[C@H]1CC[C@H](O)CC1 [Example 28, N-((1r,4R)-4-hydroxycyclohexyl)-2-((R)-6-(2,3,5,6-tetrafluorophenyl)-3-thioxo-2,5,6,7-tetrahydro-3H-pyrrolo[1,2-c]imidazol-1-yl)acetamide] |
| 72.5 % of control | 29.1 % of control | – | O=C(Cc1[nH]c(=S)n2c1C[C@H](c1c(F)c(F)cc(F)c1F)C2)NC1CCCCC1O (stereo partly drawn) [Example 29, N-(2-hydroxycyclohexyl)-2-((R)-6-(2,3,5,6-tetrafluorophenyl)-3-thioxo-2,5,6,7-tetrahydro-3H-pyrrolo[1,2-c]imidazol-1-yl)acetamide] |
| 92.0 % of control | 73.2 % of control | – | CN(C)C(=O)Cc1[nH]c(=S)n2c1C[C@H](c1c(F)c(F)cc(F)c1F)C2 [Example 30, (R)—N,N-dimethyl-2-(6-(2,3,5,6-tetrafluorophenyl)-3-thioxo-2,5,6,7-tetrahydro-3H-pyrrolo[1,2-c]imidazol-1-yl)acetamide] |
| – | 67.7 % of control | 16.7 % of control | N[C@@H](CNC(=O)Cc1[nH]c(=S)n2c1C[C@H](c1c(F)c(F)cc(F)c1F)C2)C(=O)O [Example 31, (S)-2-amino-3-(2-((R)-6-(2,3,5,6-tetrafluorophenyl)-3-thioxo-3,5,6,7-tetrahydro-2H-pyrrolo[1,2-c]imidazol-1-yl)acetamido)propanoic acid] |
| – | 46.2 % of control | 9.7 % of control | O=C(Cc1[nH]c(=S)n2c1C[C@H](c1c(F)c(F)cc(F)c1F)C2)NC1CCCC1 [Example 32] |
| – | 20.8 % of control | 4.1 % of control | CCOC(=O)Cc1[nH]c(=S)n2c1C[C@@H](c1c(F)ccc(Br)c1F)C2 [Example 59, ethyl (S)-2-(6-(3-bromo-2,6-difluorophenyl)-3-thioxo-2,5,6,7-tetrahydro-3H-pyrrolo[1,2-c]imidazol-1-yl)acetate] |
| – | 68.9 % of control | 14.0 % of control | CCOC(=O)Cc1[nH]c(=S)n2c1C[C@H](c1c(F)ccc(Br)c1F)C2 [Example 60, Ethyl (R)-2-(6-(3-bromo-2,6-difluorophenyl)-3-thioxo-2,5,6,7-tetrahydro-3H-pyrrolo[1,2-c]imidazol-1-yl)acetate] |
| – | 99.1 % of control | 47.9 % of control | CCOC(=O)Cc1[nH]c(=S)n2c1C[C@H](c1cc(F)ccc1F)C2 [Example 61, Ethyl (R)-2-(6-(2,5-difluorophenyl)-3-thioxo-2,5,6,7-tetrahydro-3H-pyrrolo[1,2-c]imidazol-1-yl)acetate] |
| – | 66.4 % of control | 10.9 % of control | CCOC(=O)Cc1[nH]c(=S)n2c1C[C@@H](c1cc(Br)ccc1F)C2 [Example 62, Ethyl (S)-2-(6-(5-bromo-2-fluorophenyl)-3-thioxo-2,5,6,7-tetrahydro-3H-pyrrolo[1,2-c]imidazol-1-yl)acetate] |
| – | 58.3 % of control | 11.9 % of control | CCOC(=O)Cc1[nH]c(=S)n2c1C[C@H](c1c(F)c(F)cc(F)c1F)C2 [Example 63, Ethyl (R)-2-(6-(2,3,5,6-tetrafluorophenyl)-3-thioxo-2,5,6,7-tetrahydro-3H-pyrrolo[1,2-c]imidazol-1-yl)acetate] |
| – | 88.4 % of control | 47.2 % of control | CCOC(=O)Cc1[nH]c(=S)n2c1C[C@H](c1cc(Cl)ccc1F)C2 [Example 64, Ethyl (R)-2-(6-(5-chloro-2-fluorophenyl)-3-thioxo-2,5,6,7-tetrahydro-3H-pyrrolo[1,2-c]imidazol-1-yl)acetate] |
| – | 64.5 % of control | 12.6 % of control | CCOC(=O)Cc1[nH]c(=S)n2c1C[C@H](c1c(F)cccc1F)C2 [Example 65, Ethyl (R)-2-(6-(2,6-difluorophenyl)-3-thioxo-2,5,6,7-tetrahydro-3H-pyrrolo[1,2-c]imidazol-1-yl)acetate] |
| – | 76.1 % of control | 13.2 % of control | CC(C)NC(=O)Cc1[nH]c(=S)n2c1[C@@H]1C[C@]1(c1cc(Cl)ccc1F)C2 [Example 67, 2-((5aS,6aR)-5a-(5-chloro-2-fluorophenyl)-3-thioxo-2,3,5,5a,6,6a-hexahydrocyclopropa[3,4]pyrrolo[1,2-c]imidazol-1-yl)-N-isopropylacetamide] |
| – | 55.6 % of control | 13.5 % of control | CNC(=O)Cc1[nH]c(=S)n2c1[C@@H]1C[C@]1(c1cc(F)cc(Cl)c1)C2 [Example 68, 2-((5aS,6aR)-5a-(3-chloro-5-fluorophenyl)-3-thioxo-2,3,5,5a,6,6a-hexahydrocyclopropa[3,4]pyrrolo[1,2-c]imidazol-1-yl)-N-methylacetamide] |
| – | 82.1 % of control | 24.1 % of control | CN(C)C(=O)Cc1[nH]c(=S)n2c1[C@@H]1C[C@]1(c1cc(F)cc(Cl)c1)C2 [Example 69, 2-((5aS,6aR)-5a-(3-chloro-5-fluorophenyl)-3-thioxo-2,3,5,5a,6,6a-hexahydrocyclopropa[3,4]pyrrolo[1,2-c]imidazol-1-yl)-N,N-dimethylacetamide] |
| – | 36.6 % of control | 2.9 % of control | O=C(Cc1[nH]c(=S)n2c1[C@@H]1C[C@]1(c1cc(Br)ccc1F)C2)N1CCCC1 [Example 70, 2-((5aS,6aR)-5a-(5-bromo-2-fluorophenyl)-3-thioxo-2,3,5,5a,6,6a-hexahydrocyclopropa[3,4]pyrrolo[1,2-c]imidazol-1-yl)-1-(pyrrolidin-1-yl)ethan-1-one] |

| SMILES | Plasma (0.01 μM), activity in % of control | Plasma (0.1 μM), activity in % of control | Plasma (1 μM), activity in % of control |
| --- | --- | --- | --- |
| O=C(Cc1[nH]c(=S)n2c1C[C@@H](c1c(F)ccc(Br)c1F)C2)NC1CCCC1=O (stereo partly drawn) [Example 34, 2-((S)-6-(3-bromo-2,6-difluorophenyl)-3-thioxo-3,5,6,7-tetrahydro-2H-pyrrolo[1,2-c]imidazol-1-yl)-N-(2-oxocyclopentyl)acetamide] | – | 10.4 % of control | 0 % of control |
